Measurements published in patent US10301295B2, “Herbicidal compounds” (Syngenta Participations AG, priority 2014, dated 2019).
Like-named read-outs stand apart in the source and are kept apart here.

Assays:
Test in all cases: Glasshouse assay for herbicidal activity, pre-/post-emergence (percentage phytotoxicity)
Assay type in all cases: in vivo
[1] = test system: Echinochloa crus-galli (ECHCG); details: Rate 250 g/ha, 100%=total damage, 0%=no damage; for pest or weed control at 250 g/ha: Echinochloa crus-galli
Procedure: (§1) Seeds of a variety of monocotyledonous and dicotyledonous test plants are sown in standard soil in pots. The plants are cultivated for one day (for pre-emergence) or for about 12 days (for post-emergence) under controlled conditions in a glasshouse (warm climate species at 24/18° C., cool climate species at 20/16° C., both at day/night; 16 hours light; 65% humidity). The test plants are then grown on, in a glasshouse (greenhouse) under controlled conditions (warm climate species at 24/18° C., cool climate species at 20/16° C., both at day/night; 16 hours light; 65% humidity) and are watered twice daily. 15 days after application of the test herbicide (15DAA) (for post-emergence), and 20 days after application of the test herbicide (20DAA) (for pre-emergence), the test plants are evaluated visually, and an assessed percentage phytotoxicity score is given for each herbicidal application on each plant species (with 100%=total damage to plant; 0%=no damage to plant). The plant species tested are as follows: Alopecurus myosuroides (ALOMY), Avena fatua (AVEFA), Lolium perenne (LOLPE), Echinochloa crus-galli (ECHCG).

Lolium perenne (LOLPE) = details: Rate 250 g/ha, 100%=total damage, 0%=no damage; for pest or weed control at 250 g/ha: Lolium perenne
Procedure: as §1

[2] = test system: Alopecurus myosuroides (ALOMY); details: Rate 250 g/ha, 100%=total damage, 0%=no damage; for pest or weed control at 250 g/ha: Alopecurus myosuroides
Procedure: as §1

Avena fatua (AVEFA) = details: Rate 250 g/ha, 100%=total damage, 0%=no damage; for pest or weed control at 250 g/ha: Avena fatua
Procedure: as §1

[3] = post-emergence, 360 h, post-emergence, visual assessment 15 DAA, read-out: Post-emergence herbicidal activity (percentage phytotoxicity), ECHCG POST
[4] = pre-emergence, 480 h, pre-emergence, visual assessment 20 DAA, read-out: Pre-emergence herbicidal activity (percentage phytotoxicity), ECHCG PRE
[5] = post-emergence, 360 h, post-emergence, visual assessment 15 DAA, read-out: Post-emergence herbicidal activity (percentage phytotoxicity), LOLPE POST
[6] = pre-emergence, 480 h, pre-emergence, visual assessment 20 DAA, read-out: Pre-emergence herbicidal activity (percentage phytotoxicity), LOLPE PRE
[7] = 360 h, post-emergence, visual assessment 15 DAA, read-out: Post-emergence herbicidal activity (percentage phytotoxicity), ALOMY POST
[8] = 480 h, pre-emergence, visual assessment 20 DAA, read-out: Pre-emergence herbicidal activity (percentage phytotoxicity), ALOMY PRE
[9] = post-emergence, 360 h, post-emergence, visual assessment 15 DAA, read-out: Post-emergence herbicidal activity (percentage phytotoxicity), AVEFA POST
[10] = pre-emergence, 480 h, pre-emergence, visual assessment 20 DAA, read-out: Pre-emergence herbicidal activity (percentage phytotoxicity), AVEFA PRE
[11] = post-emergence, visual assessment 15 DAA
[12] = pre-emergence, visual assessment 20 DAA

Row | SMILES | pest or weed control at 250 g/ha [1, 3] [%] | pest or weed control at 250 g/ha [1, 4] [%] | pest or weed control at 250 g/ha (Lolium perenne (LOLPE); [5]) [%] | pest or weed control at 250 g/ha (Lolium perenne (LOLPE); [6]) [%] | pest or weed control at 250 g/ha [2, 7] [%] | pest or weed control at 250 g/ha [2, 8] [%] | pest or weed control at 250 g/ha (Avena fatua (AVEFA); [9]) [%] | pest or weed control at 250 g/ha (Avena fatua (AVEFA); [10]) [%] | Post-emergence herbicidal activity (percentage phytotoxicity), ECHCG POST [1, 11] [%] | Pre-emergence herbicidal activity (percentage phytotoxicity), ECHCG PRE [1, 12] [%] | Post-emergence herbicidal activity (percentage phytotoxicity), LOLPE POST (Lolium perenne (LOLPE); [11]) [%] | Pre-emergence herbicidal activity (percentage phytotoxicity), LOLPE PRE (Lolium perenne (LOLPE); [12]) [%] | Post-emergence herbicidal activity (percentage phytotoxicity), ALOMY POST [2, 11] [%] | Pre-emergence herbicidal activity (percentage phytotoxicity), ALOMY PRE [2, 12] [%] | Post-emergence herbicidal activity (percentage phytotoxicity), AVEFA POST (Avena fatua (AVEFA); [11]) [%] | Pre-emergence herbicidal activity (percentage phytotoxicity), AVEFA PRE (Avena fatua (AVEFA); [12]) [%]
1 | Cc1cc(C)c(C2C(=O)CC(CCNc3ccc([N+](=O)[O-])cn3)C2=O)c(C)c1 (stereo not shown) [Compound A96] | 100 | 100 | 100 | 100 | 90 | 80 | 100 | 90 | – | – | – | – | – | – | – | –
2 | Cc1cc(C)c(C2C(=O)CC(CCNc3ncc(C(F)(F)F)cc3F)C2=O)c(C)c1 (stereo not shown) [Compound A97] | 100 | 90 | 90 | 100 | 90 | 80 | 90 | 90 | – | – | – | – | – | – | – | –
3 | Cc1cc(C)c(C2C(=O)CC(CCNc3ccc([N+](=O)[O-])cc3C(F)(F)F)C2=O)c(C)c1 (stereo not shown) [Compound A104] | 70 | 90 | 90 | 80 | 90 | 60 | 80 | 70 | – | – | – | – | – | – | – | –
4 | Cc1cc(OCC(F)(F)F)cc(C)c1C1C(=O)CC(CCNC(=O)C2=NOC(C)(C)C2)C1=O (stereo not shown) [Compound A115] | 100 | 70 | 90 | 90 | 100 | 100 | 100 | 80 | – | – | – | – | – | – | – | –
5 | Cc1cc(C)c(C2C(=O)CC(CCNC(=O)Nc3ccc(F)cn3)C2=O)c(C)c1.Cl (stereo not shown) [Compound A93] | – | – | – | – | – | – | – | – | 100 | 90 | 70 | 90 | 90 | 90 | 90 | 70
6 | Cc1cc(C)c(C2C(=O)C[C@H](CCNC(=O)C3=NOC(C)(C)C3)C2=O)c(C)c1 (stereo partly shown) [Compound A103] | 70 | 60 | 70 | 80 | 80 | 80 | 80 | 50 | – | – | – | – | – | – | – | –
7 | Cc1cc(C)c(C2C(=O)CC(CCN(C)C(=O)Nc3ccccn3)C2=O)c(C)c1 (stereo not shown) [Compound A101, 1-[2-[2,4-dioxo-3-(2,4,6-trimethylphenyl)cyclopentyl]ethyl]-1-methyl-3-(2-pyridyl)urea] | 70 | 10 | 40 | 30 | 70 | 40 | 70 | 0 | – | – | – | – | – | – | – | –
8 | CC#Cc1cc(C)c(C2C(=O)CC(CCNC(=O)C3=NOC(C)(C)C3)C2=O)c(C)c1 (stereo not shown) [Compound A108] | 100 | 100 | 100 | 100 | 100 | 100 | 100 | 90 | – | – | – | – | – | – | – | –
